Assay results taken from patent publication US9637453B2, “3-spirocyclic-6-hydroxamic acid tetralins as HDAC inhibitors” (Forma Therapeutics, Inc., priority 2015, dated 2017).

Tests used:
[1] = target: T1, Full length human recombinant HDAC6 (Homo sapiens, UniProt Q9UBN7); assay: In vitro histone deacetylase assay, enzymatic HDAC6 (electrophoretic mobility shift assay); type: biochemical; conditions: 1 nM HDAC6; 2 μM peptide substrate FAM-RHKK(Ac)—NH2; 25° C.; 12 concentrations; read-out: HDAC6 Activity Range (IC50)
T1 construct: Full length human recombinant HDAC6 and HDAC11 proteins were expressed in baculoviral system
T1 sequence (Q9UBN7 1-1215): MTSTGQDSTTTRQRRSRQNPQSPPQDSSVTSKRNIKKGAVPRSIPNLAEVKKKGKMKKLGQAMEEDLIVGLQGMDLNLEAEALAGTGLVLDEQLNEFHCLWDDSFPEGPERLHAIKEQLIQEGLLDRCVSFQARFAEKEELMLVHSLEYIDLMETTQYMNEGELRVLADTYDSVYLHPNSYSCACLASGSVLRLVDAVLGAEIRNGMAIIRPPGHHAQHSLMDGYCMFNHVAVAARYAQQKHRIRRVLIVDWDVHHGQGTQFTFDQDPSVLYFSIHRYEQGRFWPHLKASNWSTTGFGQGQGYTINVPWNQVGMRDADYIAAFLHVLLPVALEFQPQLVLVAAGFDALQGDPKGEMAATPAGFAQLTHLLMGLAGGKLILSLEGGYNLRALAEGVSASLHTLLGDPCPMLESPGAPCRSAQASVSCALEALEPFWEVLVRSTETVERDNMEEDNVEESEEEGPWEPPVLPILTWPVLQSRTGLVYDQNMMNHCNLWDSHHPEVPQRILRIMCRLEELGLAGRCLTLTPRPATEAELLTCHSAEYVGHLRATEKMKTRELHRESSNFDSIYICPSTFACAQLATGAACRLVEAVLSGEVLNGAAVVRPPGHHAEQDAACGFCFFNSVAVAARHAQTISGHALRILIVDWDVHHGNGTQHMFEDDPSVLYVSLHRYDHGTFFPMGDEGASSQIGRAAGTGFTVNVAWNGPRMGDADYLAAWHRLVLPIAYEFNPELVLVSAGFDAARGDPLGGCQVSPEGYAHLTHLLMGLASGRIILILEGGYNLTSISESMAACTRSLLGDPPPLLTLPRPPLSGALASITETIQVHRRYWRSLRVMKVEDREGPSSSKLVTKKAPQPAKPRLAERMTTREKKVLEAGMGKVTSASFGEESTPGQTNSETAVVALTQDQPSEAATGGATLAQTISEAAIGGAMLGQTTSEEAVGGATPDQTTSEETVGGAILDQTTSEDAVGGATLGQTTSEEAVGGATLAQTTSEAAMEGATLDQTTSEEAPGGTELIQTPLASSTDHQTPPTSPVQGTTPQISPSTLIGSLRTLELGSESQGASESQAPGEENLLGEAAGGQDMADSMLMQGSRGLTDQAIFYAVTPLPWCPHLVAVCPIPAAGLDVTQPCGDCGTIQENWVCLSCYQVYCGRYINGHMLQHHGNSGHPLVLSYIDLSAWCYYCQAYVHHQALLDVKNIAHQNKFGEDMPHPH
Procedure: (§1) The enzymatic HDAC6 and HDAC11 assays were performed using electrophoretic mobility shift assay. Full length human recombinant HDAC6 and HDAC11 proteins were expressed in baculoviral system and purified by affinity chromatography. The enzymatic reactions were assembled in 384 well plates in a total volume of 25 μL in a reaction buffer composing: 100 mM HEPES, pH 7.5, 25 mM KCl, 0.1% bovine serum albumin, 0.01% Triton X-100, 1% DMSO (from compounds) 2 μM of the fluorescently labeled peptide substrate and enzyme. The enzymes were added at a final concentration of 1 nM for HDAC6, and 10 nM for HDAC11. The peptide substrate FAM-RHKK(Ac)—NH2 was used for HDAC6, and FAM-RHKK(tri-fluor-Ac)—NH2 for HDAC11. The compounds were tested at 12 concentrations spaced by 3× dilution intervals. Negative control samples (0%-inhibition in the absence of inhibitor) and positive control samples (100%-inhibition) were assembled in replicates of four in each assay plate. The reactions were incubated at 25° C. and quenched by the addition of 45 μL of termination buffer (100 mM HEPES, pH 7.5, 0.01% Triton X-100, 0.05% SDS).
(§2) The terminated assay plates were analyzed on LabChip® 3000 microfluidic electrophoresis instrument (Perkin Elmer/Caliper Life Sciences). The fluorescence intensity of the electrophoretically separated de-acetylated product and substrate peptide was measured. Activity in each sample was determined as the product to sum ratio (PSR): P/(S+P), where P is the peak height of the product peptide and S is the peak height of the substrate peptide. Percent inhibition (Pinh) is determined using following equation:
(§3) Pinh=(PSR0%−PSRinh)/(PSR0%−PSR100%)*100, where PSRinh is the product sum ratio in the presence of inhibitor, PSR0% is the average product sum ration in the absence of inhibitor and PSR100% is the average product sum ratio in 100%-inhibition control samples. The IC50 values of inhibitors were determined by fitting the %-inhibition curves with 4 parameter dose-response model using XLfit 4 software.
(§4) As set forth in Table-26 and Table-27, below, IC5o values are defined as follows: IC50≦0.1 μM (+++); IC50>0.1 μM and ≦0.5 μM (++); IC50>0.5 μM (+).

[2] = target: T2, Full length human recombinant HDAC11 (Homo sapiens, UniProt Q96DB2); assay: In vitro histone deacetylase assay, enzymatic HDAC11 (electrophoretic mobility shift assay); type: biochemical; conditions: 10 nM HDAC11; 2 μM peptide substrate FAM-RHKK(tri-fluor-Ac)—NH2; 25° C.; 12 concentrations; read-out: HDAC11 Activity Range (IC50)
T2 construct: Full length human recombinant HDAC6 and HDAC11 proteins were expressed in baculoviral system
T2 sequence (Q96DB2 1-347): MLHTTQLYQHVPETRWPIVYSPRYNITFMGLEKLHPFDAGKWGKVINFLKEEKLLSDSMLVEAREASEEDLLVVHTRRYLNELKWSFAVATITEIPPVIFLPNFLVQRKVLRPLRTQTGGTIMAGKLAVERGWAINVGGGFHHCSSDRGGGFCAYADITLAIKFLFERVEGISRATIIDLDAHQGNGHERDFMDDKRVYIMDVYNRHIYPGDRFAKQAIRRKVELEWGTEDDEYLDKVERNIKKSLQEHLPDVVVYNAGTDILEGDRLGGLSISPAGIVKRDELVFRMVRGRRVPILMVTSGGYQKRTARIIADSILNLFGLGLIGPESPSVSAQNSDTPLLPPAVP
Procedure: as §1, §2, §3, §4

Q: `O=C(NO)c1ccc2c(c1)C[C@]1(CC2)CCN(c2ccccc2)C1` [Compound I-17, (R)—N-hydroxy-1′-phenyl-3,4-dihydro-1H-spiro[naphthalene-2,3′-pyrrolidine]-7-carboxamide] was tested. Which IC50 [1] did it give?
A: ≤ 100 nM

Q: What about the IC50 [2] of the same molecule?
A: > 500 nM

Q: How did the IC50 [1] turn out when `O=C(NO)c1ccc2c(c1)C[C@]1(CC2)CCN(Cc2c(Cl)cccc2Cl)C1=O` [Compound I-95, (R)-1′-(2,6-dichlorobenzyl)-N-hydroxy-2′-oxo-3,4-dihydro-1H-spiro[naphthalene-2,3′-pyrrolidine]-7-carboxamide] was run?
A: ≤ 100 nM

Q: What about the IC50 [2] of the same molecule?
A: > 500 nM

Q: Which IC50 [1] does the source give for `CC(C)N1C[C@@]2(CCc3ccc(C(=O)NO)cc3C2)CC1=O` [Compound I-139, (R)—N-hydroxy-1′-isopropyl-5′-oxo-3,4-dihydro-1H-spiro[naphthalene-2,3′-pyrrolidine]-7-carboxamide] here?
A: ≤ 100 nM

Q: And the IC50 [2]?
A: > 500 nM

Q: `O=C(NO)c1ccc2c(c1)C[C@@]1(CC2)CCN(C/C=C/c2ccccc2)C1=O` [Compound I-58, (S)-1′-cinnamyl-N-hydroxy-2′-oxo-3,4-dihydro-1H-spiro[naphthalene-2,3′-pyrrolidine]-7-carboxamide] was tested. Which IC50 [1] did it give?
A: ≤ 100 nM

Q: And the IC50 [2]?
A: 100 to 500 nM

Q: `Cc1ccccc1CN1CC[C@@]2(CCc3ccc(C(=O)NO)cc3C2)C1=O` [Compound I-59, (S)—N-hydroxy-1′-(2-methylbenzyl)-2′-oxo-3,4-dihydro-1H-spiro[naphthalene-2,3′-pyrrolidine]-7-carboxamide] was tested. Which IC50 [1] did it give?
A: ≤ 100 nM

Q: And the IC50 [2]?
A: > 500 nM

Q: `O=C(NO)c1ccc2c(c1)CC1(CC2)CCN(c2ccncc2)C1=O` (stereo not drawn) [Compound I-30, N-hydroxy-2′-oxo-1′-(pyridin-4-yl)-3,4-dihydro-1H-spiro[naphthalene-2,3′-pyrrolidine]-7-carboxamide] was tested. Which IC50 [1] did it give?
A: ≤ 100 nM

Q: And the IC50 [2]?
A: > 500 nM

Q: For `CN1CC[C@@]2(CCc3ccc(C(=O)NO)cc3C2)C1=O` [Compound I-121, (S)—N-hydroxy-1′-methyl-2′-oxo-3,4-dihydro-1H-spiro[naphthalene-2,3′-pyrrolidine]-7-carboxamide], which IC50 [1] is on record?
A: ≤ 100 nM

Q: What about the IC50 [2] of the same molecule?
A: > 500 nM

Q: Which results are given for `CCN1C[C@]2(CCc3ccc(C(=O)NO)cc3C2)CC1=O` [Compound I-143, (S)-1′-ethyl-N-hydroxy-5′-oxo-3,4-dihydro-1H-spiro[naphthalene-2,3′-pyrrolidine]-7-carboxamide]?
A: IC50 [1]: ≤ 100 nM; IC50 [2]: > 500 nM

Q: Which IC50 [1] does the source give for `COCCn1c(CN2CC[C@]3(CCc4ccc(C(=O)NO)cc4C3)C2=O)nc2ccccc21` [Compound I-46, (R)—N-hydroxy-1′-((1-(2-methoxyethyl)-1H-benzo[d]imidazol-2-yl)methyl)-2′-oxo-3,4-dihydro-1H-spiro[naphthalene-2,3′-pyrrolidine]-7-carboxamide] here?
A: ≤ 100 nM

Q: What about the IC50 [2] of the same molecule?
A: 100 to 500 nM

Q: How did the IC50 [1] turn out when `CS(=O)(=O)N1CCC2(CCc3ccc(C(=O)NO)cc3C2)C1` (stereo not drawn) [Compound I-13, N-hydroxy-1′-(methylsulfonyl)-3,4-dihydro-1H-spiro[naphthalene-2,3′-pyrrolidine]-7-carboxamide] was run?
A: ≤ 100 nM

Q: What about the IC50 [2] of the same molecule?
A: > 500 nM

Q: How did the IC50 [1] turn out when `O=C(NO)c1ccc2c(c1)C[C@@]1(CC2)CCN(c2nc3ccccc3[nH]2)C1=O` [Compound I-31, (S)-1′-(1H-benzo[d]imidazol-2-yl)-N-hydroxy-2′-oxo-3,4-dihydro-1H-spiro[naphthalene-2,3′-pyrrolidine]-7-carboxamide] was run?
A: ≤ 100 nM

Q: What about the IC50 [2] of the same molecule?
A: > 500 nM

Q: With `O=C(NO)c1ccc2c(c1)C[C@]1(CC2)CCN(Cc2cccc(Cl)c2)C1=O` [Compound I-101, (R)-1′-(3-chlorobenzyl)-N-hydroxy-2′-oxo-3,4-dihydro-1H-spiro[naphthalene-2,3′-pyrrolidine]-7-carboxamide] as the molecule, how does the IC50 [1] read?
A: ≤ 100 nM

Q: What about the IC50 [2] of the same molecule?
A: ≤ 100 nM

Q: Which results are given for `O=C(NO)c1ccc2c(c1)C[C@@]1(CC2)CCN(Cc2ccccc2F)C1=O` [Compound I-76, (S)-1′-(2-fluorobenzyl)-N-hydroxy-2′-oxo-3,4-dihydro-1H-spiro[naphthalene-2,3′-pyrrolidine]-7-carboxamide]?
A: IC50 [1]: ≤ 100 nM; IC50 [2]: > 500 nM

Q: Which IC50 [1] does the source give for `COc1ccc(CN2CCC3(CCc4ccc(C(=O)NO)cc4C3)C2)cc1` (stereo not drawn) [Compound I-3, N-hydroxy-1′-(4-methoxybenzyl)-3,4-dihydro-1H-spiro[naphthalene-2,3′-pyrrolidine]-7-carboxamide] here?
A: 100 to 500 nM

Q: What about the IC50 [2] of the same molecule?
A: > 500 nM

Q: For `O=C(NO)c1ccc2c(c1)C[C@@]1(CC2)CCN(Cc2ccc(C(F)(F)F)cc2)C1=O` [Compound I-126, (S)—N-hydroxy-2′-oxo-1′-(4-(trifluoromethyl)benzyl)-3,4-dihydro-1H-spiro[naphthalene-2,3′-pyrrolidine]-7-carboxamide], which IC50 [1] is on record?
A: ≤ 100 nM

Q: And the IC50 [2]?
A: ≤ 100 nM

Q: `O=C(NO)c1ccc2c(c1)C[C@]1(CC2)CC(=O)N(c2ccccc2)C1` [Compound I-145, (R)—N-hydroxy-5′-oxo-1′-phenyl-3,4-dihydro-1H-spiro[naphthalene-2,3′-pyrrolidine]-7-carboxamide] was tested. Which IC50 [1] did it give?
A: ≤ 100 nM

Q: And the IC50 [2]?
A: > 500 nM

Q: `O=C(NO)c1ccc2c(c1)C[C@@]1(CC2)CC(=O)N(C2CCC2)C1` [Compound I-151, (S)-1′-cyclobutyl-N-hydroxy-5′-oxo-3,4-dihydro-1H-spiro[naphthalene-2,3′-pyrrolidine]-7-carboxamide] was tested. Which IC50 [1] did it give?
A: ≤ 100 nM

Q: How did the IC50 [1] turn out when `O=C(NO)c1ccc2c(c1)C[C@]1(CC2)CC(=O)N(C2CCCC2)C1` [Compound I-152, (R)-1′-cyclopentyl-N-hydroxy-5′-oxo-3,4-dihydro-1H-spiro[naphthalene-2,3′-pyrrolidine]-7-carboxamide] was run?
A: ≤ 100 nM

Q: For `O=C(NO)c1ccc2c(c1)C[C@@]1(CC2)CC(=O)N(C2CCCC2)C1` [Compound I-153, (S)-1′-cyclopentyl-N-hydroxy-5′-oxo-3,4-dihydro-1H-spiro[naphthalene-2,3′-pyrrolidine]-7-carboxamide], which IC50 [1] is on record?
A: ≤ 100 nM

Q: Which IC50 [1] does the source give for `O=C(NO)c1ccc2c(c1)C[C@]1(CC2)CC(=O)N(C2CCC2)C1` [Compound I-150, (R)-1′-cyclobutyl-N-hydroxy-5′-oxo-3,4-dihydro-1H-spiro[naphthalene-2,3′-pyrrolidine]-7-carboxamide] here?
A: ≤ 100 nM
